Reference: ChEMBL document CHEMBL1201862, “PubChem BioAssay data set” (2004)
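All cell lines were grown in 96-well plates and treated with compound for 48 hours. Abbreviation: GI50, concentration required for 50% inhibition of growth.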 Activity calls are given as the source filed them. Cut-off read from the data, not from the text of the source: active = GI50 up to about 1.1 µM and inactive = higher.

What was measured:
Assay in all cases: NCI anticancer screen, dose series, 48 h
HCT-15 = system: HCT-15
SK-OV-3 = system: SK-OV-3
EKVX = system: EKVX
SNB-78 = system: SNB-78
TK-10 = system: TK-10
KM12 = system: KM12
CCRF-CEM = system: CCRF-CEM
NCI-H23 = system: NCI-H23
HCT-116 = system: HCT-116
HCC 2998 = system: HCC 2998
OVCAR-3 = system: OVCAR-3
M19-MEL = system: M19-MEL
DLD-1 = system: DLD-1
KM-20L2 = system: KM-20L2
K562 = system: K562
NCI-H226 = system: NCI-H226
COLO 205 = system: COLO 205
HOP-92 = system: HOP-92
DMS-273 = system: DMS-273
A549 = system: A549
786-0 = system: 786-0
OVCAR-4 = system: OVCAR-4
M14 = system: M14
SF-539 = system: SF-539
SF-268 = system: SF-268
SF-295 = system: SF-295
DMS-114 = system: DMS-114
HT-29 = system: HT-29
ACHN = system: ACHN
OVCAR-5 = system: OVCAR-5
SR = system: SR
NCI-H460 = system: NCI-H460
SNB-19 = system: SNB-19
UACC-257 = system: UACC-257
LOX IMVI = system: LOX IMVI
U-251 = system: U-251
HOP-62 = system: HOP-62
HOP-18 = system: HOP-18
UACC-62 = system: UACC-62
OVCAR-8 = system: OVCAR-8
SW-620 = system: SW-620
A498 = system: A498
SN12C = system: SN12C
NCI-H522 = system: NCI-H522
SK-MEL-28 = system: SK-MEL-28
CAKI-1 = system: CAKI-1
IGROV-1 = system: IGROV-1
MOLT-4 = system: MOLT-4
RXF 393 = system: RXF 393
UO-31 = system: UO-31
HL-60 = system: HL-60
SNB-75 = system: SNB-75
RPMI-8226 = system: RPMI-8226
SK-MEL-2 = system: SK-MEL-2
SK-MEL-5 = system: SK-MEL-5
LXFL 529 = system: LXFL 529
Malme-3M = system: Malme-3M
T47D = system: T47D
MDA-N = system: MDA-N
BT-549 = system: BT-549
NCI/ADR-RES = system: NCI/ADR-RES
MDA-MB-231 = system: MDA-MB-231
PC-3 = system: PC-3
DU-145 = system: DU-145
MDA-MB-435 = system: MDA-MB-435
Hs-578T = system: Hs-578T
MCF7 = system: MCF7

SMILES: O=c1oc2c(O)c(O)c(O)c3c(=O)oc4c(O)c(O)cc1c4c23 [FLAVELLAGIC ACID]
- GI50 (HCT-15): > 100 µM
- GI50 (SK-OV-3): > 100 µM (inactive)
- GI50 (EKVX): > 100 µM (inactive)
- GI50 (SNB-78): > 100 µM (inactive)
- GI50 (TK-10): > 100 µM (inactive)
- GI50 (KM12): > 100 µM (inactive)
- GI50 (CCRF-CEM): 29.2 µM (inactive)
- GI50 (NCI-H23): > 100 µM (inactive)
- GI50 (HCT-116): 89.9 µM (inactive)
- GI50 (HCC 2998): > 100 µM (inactive)
- GI50 (OVCAR-3): 61 µM (inactive)
- GI50 (M19-MEL): 9.79 µM (inactive)
- GI50 (DLD-1): > 100 µM (inactive)
- GI50 (KM-20L2): > 100 µM (inactive)
- GI50 (K562): 25.6 µM (inactive)
- GI50 (NCI-H226): 83 µM (inactive)
- GI50 (COLO 205): 99.5 µM (inactive)
- GI50 (HOP-92): > 100 µM (inactive)
- GI50 (DMS-273): 85.1 µM (inactive)
- GI50 (A549): > 100 µM (inactive)
- GI50 (786-0): 62.8 µM (inactive)
- GI50 (OVCAR-4): 16.2 µM (inactive)
- GI50 (M14): > 100 µM (inactive)
- GI50 (SF-539): > 100 µM (inactive)
- GI50 (SF-268): > 100 µM (inactive)
- GI50 (SF-295): 23.8 µM (inactive)
- GI50 (DMS-114): 29.7 µM (inactive)
- GI50 (HT-29): 39.5 µM (inactive)
- GI50 (ACHN): 73.1 µM (inactive)
- GI50 (OVCAR-5): > 100 µM (inactive)
- GI50 (SR): > 100 µM (inactive)
- GI50 (NCI-H460): > 100 µM (inactive)
- GI50 (SNB-19): > 100 µM (inactive)
- GI50 (UACC-257): > 100 µM (inactive)
- GI50 (LOX IMVI): 18 µM (inactive)
- GI50 (U-251): 19.3 µM (inactive)
- GI50 (HOP-62): > 100 µM (inactive)
- GI50 (HOP-18): > 100 µM (inactive)
- GI50 (UACC-62): 57.3 µM (inactive)
- GI50 (OVCAR-8): 71.4 µM (inactive)
- GI50 (SW-620): 97.7 µM (inactive)
- GI50 (A498): > 100 µM (inactive)
- GI50 (SN12C): 18.6 µM (inactive)
- GI50 (NCI-H522): 46.1 µM (inactive)
- GI50 (SK-MEL-28): > 100 µM (inactive)
- GI50 (CAKI-1): > 100 µM (inactive)
- GI50 (IGROV-1): > 100 µM (inactive)
- GI50 (MOLT-4): 25.9 µM (inactive)
- GI50 (RXF 393): > 100 µM (inactive)
- GI50 (UO-31): 38.4 µM (inactive)
- GI50 (HL-60): 36.6 µM (inactive)
- GI50 (SNB-75): 47.6 µM (inactive)
- GI50 (RPMI-8226): > 100 µM (inactive)
- GI50 (SK-MEL-2): > 100 µM (inactive)
- GI50 (SK-MEL-5): > 100 µM (inactive)
- GI50 (LXFL 529): 73.1 µM (inactive)
- GI50 (Malme-3M): > 100 µM (inactive)

SMILES: Cc1ccc2c(c1)CN(C(=O)CCC(=O)OCc1ccccc1)c1ccc(C)cc1CN2C(=O)CCC(=O)OCc1ccccc1
- GI50 (HCT-15): > 100 µM
- GI50 (T47D): > 100 µM (inactive)
- GI50 (SK-OV-3): > 100 µM (inactive)
- GI50 (EKVX): > 100 µM (inactive)
- GI50 (SNB-78): > 100 µM (inactive)
- GI50 (TK-10): > 100 µM (inactive)
- GI50 (KM12): 99.3 µM (inactive)
- GI50 (CCRF-CEM): > 100 µM (inactive)
- GI50 (NCI-H23): > 100 µM (inactive)
- GI50 (HCT-116): > 100 µM (inactive)
- GI50 (HCC 2998): > 100 µM (inactive)
- GI50 (OVCAR-3): > 100 µM (inactive)
- GI50 (M19-MEL): > 100 µM (inactive)
- GI50 (DLD-1): > 100 µM (inactive)
- GI50 (MDA-N): > 100 µM (inactive)
- GI50 (KM-20L2): > 100 µM (inactive)
- GI50 (K562): > 100 µM (inactive)
- GI50 (BT-549): > 100 µM (inactive)
- GI50 (NCI-H226): > 100 µM (inactive)
- GI50 (COLO 205): > 100 µM (inactive)
- GI50 (NCI/ADR-RES): > 100 µM (inactive)
- GI50 (MDA-MB-231): > 100 µM (inactive)
- GI50 (HOP-92): 82.2 µM (inactive)
- GI50 (DMS-273): > 100 µM (inactive)
- GI50 (A549): > 100 µM (inactive)
- GI50 (786-0): > 90.8 µM (inactive)
- GI50 (OVCAR-4): > 100 µM (inactive)
- GI50 (M14): > 100 µM (inactive)
- GI50 (SF-539): 88.3 µM (inactive)
- GI50 (SF-268): > 100 µM (inactive)
- GI50 (SF-295): 98.6 µM (inactive)
- GI50 (DMS-114): > 100 µM (inactive)
- GI50 (HT-29): > 100 µM (inactive)
- GI50 (ACHN): > 100 µM (inactive)
- GI50 (OVCAR-5): > 100 µM (inactive)
- GI50 (SR): > 100 µM (inactive)
- GI50 (NCI-H460): > 100 µM (inactive)
- GI50 (PC-3): > 100 µM (inactive)
- GI50 (SNB-19): > 100 µM (inactive)
- GI50 (UACC-257): > 100 µM (inactive)
- GI50 (LOX IMVI): > 100 µM (inactive)
- GI50 (DU-145): > 100 µM (inactive)
- GI50 (U-251): > 100 µM (inactive)
- GI50 (HOP-62): > 78 µM (inactive)
- GI50 (HOP-18): > 100 µM (inactive)
- GI50 (UACC-62): > 100 µM (inactive)
- GI50 (MDA-MB-435): > 100 µM (inactive)
- GI50 (OVCAR-8): > 100 µM (inactive)
- GI50 (SW-620): > 100 µM (inactive)
- GI50 (A498): > 100 µM (inactive)
- GI50 (SN12C): > 100 µM (inactive)
- GI50 (NCI-H522): > 100 µM (inactive)
- GI50 (SK-MEL-28): > 100 µM (inactive)
- GI50 (CAKI-1): > 100 µM (inactive)
- GI50 (IGROV-1): > 100 µM (inactive)
- GI50 (MOLT-4): > 100 µM (inactive)
- GI50 (RXF 393): > 100 µM (inactive)
- GI50 (HL-60): > 100 µM (inactive)
- GI50 (SNB-75): 26.6 µM (inactive)
- GI50 (RPMI-8226): > 100 µM (inactive)
- GI50 (SK-MEL-2): > 100 µM (inactive)
- GI50 (SK-MEL-5): > 100 µM (inactive)
- GI50 (Hs-578T): 40 µM (inactive)
- GI50 (LXFL 529): > 100 µM (inactive)
- GI50 (Malme-3M): > 100 µM (inactive)
- GI50 (MCF7): 9.25 µM (inactive)
